Reference: US10370436B2, “Anti-pseudomonas Psl binding molecules and uses thereof” (priority 2011, dated 2019)

What was measured:
P. aeruginosa PAO1 cells = assay: Flow cytometry (FACS) whole cell binding; design: species or system Pseudomonas aeruginosa; conditions: PAO1ΔpslA; FIG. 3C
Excerpt: For IgG expression, the VH and VL chains of selected antibodies were cloned into human IgG1 expression vectors, co-expressed in HEK293 cells, and purified by protein A affinity chromatography as described (Persic, L., et al., Gene 187, 9-18 (1997)). Human IgG1 antibodies made with the variable regions from these selected serotype independent phage were confirmed for P. aeruginosa specificity and prioritized for subsequent analysis by whole cell binding to dominant clinically relevant serotypes by FACS analysis (FIG. 1F), since this method is more stringent than ELISA. For the flow cytometry based binding assays mid-log phase P. aeruginosa strains were concentrated in PBS to an OD650 of 2.0. […] Samples were run on a LSR II flow cytometer (BD Biosciences) and analyzed using BD FacsDiva (v. 6.1.3) and FlowJo (v. 9.2; TreeStar).
CAM-003 is specific for the P. aeruginosa Psl surface exopolysaccharide and mediates potent OPK activity and protection in multiple in vivo models. […] Conjugation efficiency of PMB-mAbs variants was determined by mass spectrometry analysis of heavy chains in purified conjugates. […] Contamination with free PMB in the purified preparations was determined to be negligible. Binding of PMB-Cam-003 and PMB-A7 conjugates to P. aeruginosa PAO1 cells was evaluated by FACS. […] Samples were stained and analyzed as previously described in Example 1. […]

[1] = tested on: P. aeruginosa PAO1 and isogenic mutants; assay: Indirect ELISA on plates coated with P. aeruginosa strains; assay type: binding, Pseudomonas aeruginosa
Excerpt: In addition, duplication of VH CDR3 loop sequences in the libraries (a measure of clonal enrichment during selection), was also found to be higher in the patient library, reaching 88-92%, compared to 15-25% in the naïve library at round 3 (FIG. 1D). Individual scFv phage from affinity selections were next screened by ELISA for reactivity to P. aeruginosa heterologous serotype strains (FIG. 1E). ELISA plates (Nunc; MAXISORP™) were coated with P. aeruginosa strains from overnight cultures as described (DiGiandomenico, A., et al., Infect Immun 72, 7012-7021 (2004)). Diluted antibodies were added to blocked plates for 1 hour, washed, and treated with HRP-conjugated anti-human secondary antibodies for 1 hour followed by development and analysis as described (Ulbrandt, N. D., et al., J Virol 80, 7799-7806 (2006)). The dominant species of phage obtained from whole cell selections with both libraries yielded serotype specific reactivity (data not shown).
This example describes identification of the target of anti-P. aeruginosa antibodies derived from phenotypic screening. Target analysis was performed to test whether the serotype independent antibodies targeted protein or carbohydrate antigens. […] Isogenic mutants were constructed in genes responsible for O-antigen, alginate, and LPS core biosynthesis; wbpL (O-antigen-deficient); wbpL/algD (O-antigen and alginate deficient); rmlC (O-antigen-deficient and truncated outer core); and galU (O-antigen-deficient and truncated inner core). P. aeruginosa mutants were constructed based on the allele replacement strategy described by Schweizer (Schweizer, H. P., Mol Microbiol 6, 1195-1204 (1992); Schweizer, H. D., Biotechniques 15, 831-834 (1993)). Vectors were mobilized from E. coli strain 517.1 into P. aeruginosa strain PAO1; recombinants were isolated as described (Hoang, T. T., et al., Gene 212, 77-86 (1998)). Gene deletion was confirmed by PCR. P. aeruginosa mutants were complemented with pUCP30T-based constructs harboring wild type genes. […] The rmlC and galU genes were recently shown to be required for biosynthesis of the Psl exopolysaccharide, a repeating pentasaccharide polymer consisting of D-mannose, L-rhamnose, and D-glucose. Cam-003 binding to an isogenic pslA knockout PAO1ΔpslA, was tested, as pslA is required for Psl biosynthesis (Byrd, M. S., et al., Mol Microbiol 73, 622-638 (2009)). Binding of Cam-003 to PAO1ΔpslA was abolished when tested by ELISA (FIG. 3B) and FACS (FIG. 3C), while the LPS molecule in this mutant was unaffected (FIG. 3D). Binding of Cam-003 was restored in a PAO1ΔwbpL/algD/pslA triple mutant complemented with pslA (FIG. 3E) as was the ability of Cam-003 to mediate opsonic killing to complemented PAO1ΔpslA in contrast to the mutant (FIGS. 3F and 3G). Binding of Cam-003 antibody to a Pcl exopolysaccharide mutant was also unaffected further confirming Psl as our antibody target (FIG. 3E). Binding assays confirmed that the remaining antibodies also bound Psl (FIGS. 3H and 3I).

Cam-003: human IgG1 anti-Psl monoclonal antibody, VH SEQ ID NO: 1 and VL SEQ ID NO: 2
FACS binding (P. aeruginosa PAO1 cells): abolished
reactivity to purified LPS ([1]; LPS purified from PAO1): not observed
ELISA binding ([1]; PAO1ΔpslA, FIG. 3B): abolished
ELISA binding ([1]; PAO1ΔwbpL/algD/pslA triple mutant complemented with pslA, FIG. 3E): restored
ELISA binding ([1]; Pcl exopolysaccharide mutant, FIG. 3E): unaffected
ELISA binding ([1]; rmlC and galU mutants, FIGS. 3A, 3J): abolished
ELISA binding ([1]; wbpL or wbpL/algD double mutant, FIGS. 3A, 3J): unaffected
